Measurements taken from patent US12577238B2, “Compositions and methods for modulating inflammatory and degenerative disorder” (University of Southern California, priority 2018, dated 2026).
Entries after “also recorded” stand apart in the source; their conditions may differ.

Legend:
[1] = test system: Col10a1-RFP reporter in limb bud mesenchymal cells; assay: High throughput screen, Col10a1 reporter in BMP-4 stimulated limb mesenchymal cells; assay type: cell-based, mouse; settings: ~170,000 compounds screened
Procedure: The gp130 co-receptor LIFR is expressed on a subset of superficial chondrocytes throughout human ontogeny. […] Given the known (and mostly detrimental roles) of IL-6 family cytokines on articular chondrocytes, a high throughput screen was performed to identify small molecules that could potentially modulate gp130 signaling. In adult mice, IL-6/gp130 signaling drives Col10a1 expression and hypertrophy, which has been strongly associated with OA progression; ˜170,000 compounds were thus screened for their ability to prevent increases in Col10-mCherry fluorescence in mouse limb mesenchymal cells stimulated with BMP-4, a strong driver of hypertrophy (FIG. 2).

[2] = test system: human fetal articular chondrocytes; assay: Alkaline phosphatase / hypertrophy in fetal articular chondrocytes; assay type: cell-based
[3] = test system: adult pig articular chondrocytes; assay: Western blot of signaling proteins (pSTAT3, MYC, MAPK, AKT, NF-κB) in pig articular chondrocytes; assay type: cell-based
Procedure: (A) Class 1 molecules (marked by red arrows) activate STAT3 and MYC signaling pathways wile Class 2 molecules (blue arrows) have no stimulatory effects on STAT3 and MYC signaling in chondrocytes as determined by western blot analysis. (B) Structures of the most prominent Class 1 and Class 2 molecules. […] All drugs were tested at 10 μM and assessed using Western Blot.
All drugs tested at 10 μM and assessed using Western Blot.
To begin to address the mechanism of action of RCGD 423, adult pig chondrocytes were incubated with the drug, IL-6 family cytokines or the pro-catabolic cytokines TNF-α and IL-1β and measured levels of various proteins downstream of these cytokines that are known to drive catabolic responses (FIG. 3).
Firstly, RCGD 423 was a hit from a library; this made the depth of the discovery surrounding the technology less comprehensive. Additionally, the physical properties of RCGD 423 (solubility, potency, functional groups) could be improved. Significant gains in these areas could potentially result in a first-in-class injectable for the treatment of post-traumatic OA. Moreover, the potential risks associated with promoting MYC stabilization and proliferation in gp130^+ cells as well as large increases in active STAT3 protein was of concern. […] These compounds were then screened in adult pig articular chondrocytes and cartilage explants, seeking compounds that could inhibit the catabolic effects of OSM but not drive increases in MYC and pSTAT3 protein levels. […] Together, these preliminary data identify CX-011 (B8) as a highly anti-inflammatory, anti-catabolic alternative to RCGD 423, with increased “drug-like” properties and reduced potential molecular liabilities.

[4] = test system: NF-κB protein; assay: OSM or IL-6 induced NF-κB in human adult articular chondrocytes; assay type: cell-based; settings: in combination with OSM or IL-6
[5] = target: T1, gp130-IL-6R complexes (Homo sapiens, UniProt P40189); assay: Receptor competition, gp130-Flag pull-down, IL-6R; assay type: cell-based; settings: in the presence of IL-6
T1 construct: Flag; expressed in transfected cells; host or cells: adult human articular chondrocytes
T1 sequence (P40189 23-918): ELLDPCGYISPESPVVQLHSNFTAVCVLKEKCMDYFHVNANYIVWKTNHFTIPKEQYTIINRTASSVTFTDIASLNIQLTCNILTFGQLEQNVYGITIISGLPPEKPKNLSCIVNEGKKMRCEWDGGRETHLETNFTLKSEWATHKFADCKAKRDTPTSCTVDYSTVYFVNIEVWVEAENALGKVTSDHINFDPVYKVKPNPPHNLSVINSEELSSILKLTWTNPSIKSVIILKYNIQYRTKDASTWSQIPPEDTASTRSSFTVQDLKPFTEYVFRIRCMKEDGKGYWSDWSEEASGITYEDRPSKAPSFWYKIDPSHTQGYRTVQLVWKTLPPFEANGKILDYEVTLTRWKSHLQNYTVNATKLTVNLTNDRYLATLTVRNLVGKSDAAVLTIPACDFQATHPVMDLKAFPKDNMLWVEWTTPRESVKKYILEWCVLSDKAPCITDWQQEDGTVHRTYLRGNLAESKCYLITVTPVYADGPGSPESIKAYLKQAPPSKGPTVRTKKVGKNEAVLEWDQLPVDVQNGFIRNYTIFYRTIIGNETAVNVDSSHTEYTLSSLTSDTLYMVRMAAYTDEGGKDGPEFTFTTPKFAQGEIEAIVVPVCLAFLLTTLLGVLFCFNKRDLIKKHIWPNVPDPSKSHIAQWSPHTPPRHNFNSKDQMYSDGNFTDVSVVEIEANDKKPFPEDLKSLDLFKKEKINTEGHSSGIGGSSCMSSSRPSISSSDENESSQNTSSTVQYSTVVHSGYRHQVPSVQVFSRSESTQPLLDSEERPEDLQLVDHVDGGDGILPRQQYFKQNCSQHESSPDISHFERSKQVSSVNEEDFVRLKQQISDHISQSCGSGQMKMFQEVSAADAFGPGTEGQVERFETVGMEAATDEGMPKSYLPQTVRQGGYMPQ
Procedure: Adult human chondrocytes transfected with gp130-Flag were incubated with various concentrations of RCGD 423 in the presence of IL-6 or OSM; levels of immoprecipitated IL-6R or OSMR were used to calculate the dissociation constant (Kd).
This property would be of great interest due to the pro-inflammatory and pro-catabolic effects of these cytokines in the joint space. […] To assess whether RCGD 423 could directly compete for gp130 occupancy, human adult articular chondrocytes were transfected with tagged gp130 and then pulled down associated proteins±RCGD 423 and/or IL-6.

[6] = Rat model of degenerative osteoarthritis (partial meniscectomy); assay type: in vivo
Procedure: In this system, 50% of the meniscus is surgically removed, promoting joint instability similar to what is commonly observed in human OA and degeneration of articular cartilage in 3-6 weeks (FIGS. 12A and B). RCGD 423 loaded onto PLGA (poly(lactic-co-glycolic acid)) microspheres for slow release, or microspheres alone, were injected into the joint space at the time of surgery and 3 weeks later.

[7] = test system: adult human synoviocytes; assay: ERK and NF-κB downstream of OSM and IL-6 in synoviocytes; assay type: cell-based
Procedure: Accordingly, the ability of RCGD 423 to suppress signaling downstream of IL-6 and OSM in synoviocytes and peripheral blood mononuclear cells was assessed (FIG. 14).

SMILES: Brc1ccc(Nc2nc(-c3ccccc3)cs2)cc1 [RCGD 423]
- ability to prevent increases in Col10-mCherry fluorescence (Col10a1 reporter) [1]: primary hit
- increases in alkaline phosphatase, a marker of hypertrophy [2]: could prevent increases in alkaline phosphatase; also recorded: ability of the compound to inhibit hypertrophy was confirmed
- levels of active STAT3 (pSTAT3) and MYC proteins ([3]; Western blot, analogs at 10 μM): increased levels of active STAT3 and MYC proteins; also recorded: shared increase in active STAT3 (pSTAT3) and MYC proteins
- activation of the MAPK, AKT and NF-κB pathways ([3]; adult pig articular chondrocytes): did not evidence the same result; also recorded: does not
- increases in NF-κB protein / signaling downstream of OSM and IL-6 [4]: significantly reduced increases in NF-κB protein; also recorded: reduces signaling downstream of OSM and IL-6
- gp130-IL-6R complexes / competition with IL-6R for gp130 occupancy [5]: gp130-IL-6R complexes were significantly reduced; also recorded: directly competes with OSMR and IL-6R for gp130 occupancy
- OARSI scores ([6]; 6 weeks, loaded onto PLGA microspheres, injected into joint space at surgery and 3 weeks later): highly significantly lower OARSI scores
- expression of proteolytic (catabolic) enzymes after joint injury ([6]; rat OA model): decreased the expression of proteolytic enzymes; also recorded: decreased the levels of catabolic enzymes
- formation, size and maturity of osteophytes ([6]; rats following partial meniscectomy): inhibited both the formation and maturity of osteophytes; also recorded: reduced the size and maturity of osteophytes
- increases in ERK and NF-κB levels downstream of OSM and IL-6 [7]: inhibits increases in ERK and NF-κB levels
